Measurements: US9702824B2, “pH sensors” (PROMEGA CORPORATION, priority 2012, dated 2017)

Assays:
[1] = molecular target: T1, IL6-HT7-β2AR (β2 adrenergic receptor) in U2-OS cells (Homo sapiens, UniProt P07550); assay: Receptor internalization detection by imaging; format: cell-based; settings: 1 uM sensor, stimulated with 1 uM Isoproterenol, imaged for 1 hour
T1 construct: expressed in transfected cells; host or cells: U2-OS
Description: (§1) Experiments were conducted during development of embodiments of the present invention to detect and monitor internalization/endocytosis. U2-OS cells expressing (either transiently or stably) a HaloTag (HT7)-Receptor fusion protein containing an IL6 signal sequence were used. The following HT7-receptor fusion proteins were expressed in the U2-OS cells: IL6-HT7-β2AR (β2 adrenergic receptor; NM_000024.3), IL6-HT7-EDG1 ([…]; NM_001400), IL6-HT7-DOR1 (δ-opioid receptor; NM 000911) and IL6-HT7-EGFR (epidermal growth factor receptor; AB528482). The cells were plated at 2×10^5 cells/mL in complete media into wells. The cells were then incubated overnight at 37° C., 5% CO2. The media was then replaced with 200 ul McCoy's 5A media with 0.5% charcoal-stripped FBS (Hyclone) and incubated for about 1 hour at 37° C., 5% CO2. The cells were then labeled with 1 uM pH sensor PBI-4479 and incubated for 10 minutes at 37° C., 5% CO2. The cells were then washed 3 times with 200 ul complete media to remove any unbound sensor. The cells were then stimulated with the respective agonist (1 uM Isoproterenol for IL6-HT7-β2AR, 1 uM S1P for IL6-HT7-EDG1, 1 uM SNC80 for IL6-HT7-DOR1, and 1 ng/mL rhEGF for IL6-HT7-EGFR) and imaged every 5 minutes for 1 hour on an Olympus FV500.

[2] = molecular target: T2, IL6-HT7-EDG1 (endothelial differential growth gene 1) in U2-OS cells (UniProt P0A3G2+P21453, A155T/A167V/A172T/A224E/C128F/C176G/D78G/E160K/E257K/H272N/K175M/K195N/L47V/L88M/N227D/S2A/S58T/T264A/Y273L/Y87F); assay: Receptor internalization detection by imaging; format: cell-based; settings: 1 uM sensor, stimulated with 1 uM S1P, imaged for 1 hour
T2 construct: expressed in transfected cells; host or cells: U2-OS
T2 sequence (P0A3G2+P21453 fused with the stated changes): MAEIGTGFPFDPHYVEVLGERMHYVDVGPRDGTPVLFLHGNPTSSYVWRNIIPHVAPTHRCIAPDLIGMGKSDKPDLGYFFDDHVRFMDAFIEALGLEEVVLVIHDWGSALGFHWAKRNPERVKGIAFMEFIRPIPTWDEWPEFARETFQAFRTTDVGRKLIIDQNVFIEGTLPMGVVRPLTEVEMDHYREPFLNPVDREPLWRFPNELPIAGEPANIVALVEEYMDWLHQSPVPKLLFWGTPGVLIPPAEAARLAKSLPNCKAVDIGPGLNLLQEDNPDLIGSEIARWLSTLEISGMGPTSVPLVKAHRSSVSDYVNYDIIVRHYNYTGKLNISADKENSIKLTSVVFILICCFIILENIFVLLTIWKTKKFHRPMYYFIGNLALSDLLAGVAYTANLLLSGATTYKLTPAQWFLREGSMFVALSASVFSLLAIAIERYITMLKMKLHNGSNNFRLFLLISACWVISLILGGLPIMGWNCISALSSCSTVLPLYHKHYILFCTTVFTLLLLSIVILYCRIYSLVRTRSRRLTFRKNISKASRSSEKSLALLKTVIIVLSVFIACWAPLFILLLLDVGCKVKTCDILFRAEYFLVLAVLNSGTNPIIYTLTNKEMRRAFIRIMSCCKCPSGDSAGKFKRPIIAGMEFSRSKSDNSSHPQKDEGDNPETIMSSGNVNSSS
Description: as §1

[3] = pH dependence of fluorescence emission; format: physicochemical
Description: Experiments were conducted during development of embodiments of the present invention to determine the fluorescence characteristics of exemplary pH sensor agents PBI-4453 and PBI-4479 (SEE FIG. 1). Fluorescence excitation and emission intensities were measured at a range of wavelengths (SEE FIG. 2). […] Fluorescence detection was performed at a range of pH values (SEE FIG. 3).

[4] = Stability in DMSO by HPLC purity; format: physicochemical; settings: 2 mM in DMSO; for HPLC Purity @ 532 nm, Ave: average of days 0-110; for HPLC Purity @ 532 nm: shielded from light
Description: PBI-4479 was dissolved to 2 mM in DMSO to approximately 2.33 mg/mL. Aliquots of 350 uL from the 2 mM solution were stored shielded from light at −20° C., 4° C. and room temperature. Stability was established by measuring fluorescent emission intensity and by testing HPLC purity at time 0, 1 day, 1 week, 1 month, 4 months, and 6 months from when the solutions were prepared and stored. For the fluorescence measurements, each aliquot was diluted (1 uL) into 4 mL of 0.1M sodium phosphate pH 4.0 directly into a 4.5 mL plastic cuvette and mixed by inversion of the vial. The maximum emission peak at 562 nm was acquired using a HoribaJobinYvon fluorometer using an excitation of 532 nm with 1.5 nm slit width. For HPLC measurements, each aliquot was diluted to 1 mM in 0.1M sodium phosphate pH 4.0, and 2 uL tested. The purity of each aliquot was tested using an Agilent 1100 liquid chromatography system equipped with a quaternary pump and a diode-array detector. The diode-array detector was set at 254 nm and 532 nm. The elution was performed using a mobile phase (A) containing 0.1% TFA in water, and a mobile phase (B) containing HPLC grade acetonitrile. A Phenomenex Synergi MAX-RP column (50×4.6 mm; 2.6 μm) was used to perform the chromatography. The HPLC was performed as follows: a gradient ran 3% to 60% mobile phase (B) to 3.60 minutes, a hold at 60% mobile phase (B) for 1 minute, a ramp up to 100% mobile phase (B) to 6 minutes, another hold at 100% mobile phase (B) for 2 minutes, and then back to 3% mobile phase (B) for 1.5 minutes. The column was given 2.5 minutes to re-equilibrate back to the starting conditions. In these conditions, the product elutes at approximately 3.7 minutes. Purity (as area percent) of the product was reported at 254 nm and 532 nm.

[5] = Fluorescence intensity loss and recovery when titrated with base and acid; format: physicochemical; settings: titrated from pH 4 to approximately 8 with NaOH and back to approximately 4 with HCl
Description: This example was performed to determine if fluorescence intensity of a pH sensor of the present invention, PBI-4479, which is mostly fluorescent at pH 4, could be recovered when titrated to basic pH, then back to acidic pH. In order to limit disruption of the concentration of the sensor, the experiment was run in a large volume, and the pH was adjusted dropwise with a concentrated base, then with an acid. The product was first dissolved in DMSO to create a concentrated stock, and then a small amount was diluted into 100 mL 10 mM sodium phosphate buffer pH 4.0. Fluorescence was recorded on a HoribaJobinYvon Fluorolog throughout the experiment using an excitation of 528 nm, and emission at 557 nm maintaining a slit width of 2 nm. Excitation and emission maxima were also determined for each aliquot in the event the fluorescence properties of the molecule changed. pH was monitored using a calibrated pH probe (Denver Instruments Model 215 pH meter). 1 mL aliquots were removed when the solution increased to approximately one pH unit, and fluorescence was measured using the parameters stated above. The solution was first titrated dropwise with 2N sodium hydroxide while stirring, until a pH of approximately 8 was attained. The solution was then titrated down with 4N hydrochloric acid until a pH of approximately 4 was attained.

[6] = test system: U2-OS cells stably expressing HaloTag-NLS; assay: pH sensor permeability, pulse and chase with HaloTag Oregon Green (Example 12); settings: 2 uM pulse for 10 minutes

Q: With O=C(NCCOCCOCCOCCOCCOCCOCCCCCCCl)c1ccc(C(=O)[O-])c(-c2c3ccc(=[N+]4CCN(CCCCS(=O)(=O)O)CC4)cc-3oc3cc(N4CCN(CCCCS(=O)(=O)O)CC4)ccc23)c1 [PBI-4479] as the compound, how does the “detection of receptor internalization” value [1] read?
A: The value was “detection of HaloTag-B2AR internalization”.

Q: And the “detection of receptor internalization” value [2]?
A: Its value is “detection of HaloTag-EDG1 internalization”.

Q: And the “pH at or below which maximal fluorescence intensity is exhibited” value [3]?
A: The value was ≤ 3.

Q: What about the “percent of maximal fluorescence intensity” value ([3]; at pH 8 or higher) of the same compound?
A: Its value is ≤ 1%.

Q: And the pKa ([3]; from pH dependence of fluorescence)?
A: Its pKa is ~6.1.

Q: And the “HPLC Purity @ 532 nm, Ave” value ([4]; 4° C.)?
A: The value was 93.6 area percent.

Q: And the “HPLC Purity @ 532 nm, Ave” value ([4]; RT)?
A: Its value is 92.5 area percent.

Q: What about the “HPLC Purity @ 532 nm” value ([4]; 4° C., 0 days) of the same compound?
A: The value was 91.8 area percent.

Q: And the “HPLC Purity @ 532 nm” value ([4]; 4° C., 1 day)?
A: The value was 92.5 area percent.

Q: What about the “HPLC Purity @ 532 nm” value ([4]; 4° C., 7 days) of the same compound?
A: The value was 93.9 area percent.

Q: And the “HPLC Purity @ 532 nm” value ([4]; 4° C., 30 days)?
A: Its value is 95.7 area percent.

Q: What about the “HPLC Purity @ 532 nm” value ([4]; 4° C., 110 days) of the same compound?
A: Its value is 93.9 area percent.

Q: What about the “HPLC Purity @ 532 nm” value ([4]; RT, 0 days) of the same compound?
A: Its value is 91.8 area percent.

Q: What about the “HPLC Purity @ 532 nm” value ([4]; RT, 1 day) of the same compound?
A: The value was 91.3 area percent.

Q: And the “HPLC Purity @ 532 nm” value ([4]; RT, 7 days)?
A: The value was 92.5 area percent.

Q: What about the “HPLC Purity @ 532 nm” value ([4]; RT, 30 days) of the same compound?
A: The value was 95.1 area percent.

Q: What about the “HPLC Purity @ 532 nm” value ([4]; RT, 110 days) of the same compound?
A: Its value is 91.8 area percent.

Q: What about the “HPLC Purity @ 532 nm” value ([4]; −20° C., 0 days) of the same compound?
A: The value was 91.1 area percent.

Q: What about the “HPLC Purity @ 532 nm” value ([4]; −20° C., 1 day) of the same compound?
A: Its value is 93.9 area percent.

Q: What about the “HPLC Purity @ 532 nm” value ([4]; −20° C., 7 days) of the same compound?
A: Its value is 92.7 area percent.

Q: What about the “HPLC Purity @ 532 nm” value ([4]; −20° C., 30 days) of the same compound?
A: The value was 95.8 area percent.

Q: What about the “HPLC Purity @ 532 nm” value ([4]; −20° C., 110 days) of the same compound?
A: The value was 95.2 area percent.

Q: And the “HPLC Purity @ 532 nm, Ave” value ([4]; −20° C.)?
A: The value was 93.7 area percent.

Q: What about the “reversibility of fluorescence intensity” value [5] of the same compound?
A: Its value is “fluorescent intensity loss and recovery”.

Q: What about the cell permeability [6] of the same compound?
A: Its cell permeability is “non-permeability”.
